What was measured:
[1] = Reaction of Compound A powder with formaldehyde vapour, related substances by HPLC (Experiment 2); format: physicochemical; conditions: 50° C. for 14 days
Experimental: When Compound A powder (2 mg) was stored in a sealed stoppered glass test tube together with a cup containing an aqueous formaldehdye solution (1 ml) in various concentrations (see FIG. 2), and stored at 50° C. for 14 days, the generated amount of related substances of Compound A was measured. The generated amount of the related substances was measured by dissolving Compound A powder (2 mg) in methanol (200 ml) to give a test solution, and applying 10 μl thereof to high performance liquid chromatograph under the following conditions. The percentage ratio of the peak area of the related substances to the total peak area including that of Compound A was regarded as the generation amount thereof.
Conditions for High Performance Liquid Chromatograph:
Column: Develosil ODS-5 (inner diameter: 4.6 mm×150 mm, manufactured by NOMURA CHEMICAL CO., LTD.)
Mobile phase: Mixture of 0.01M citric acid buffer (pH 2.5):acetonitrile (75:25)
Detector: Ultraviolet-visible spectrophotometer (wave length for detection: 220 nm)
Temperature: Constant temperature around 40° C.

[2] = Absorption of aldehyde by stabilizer (Experiment 4); format: physicochemical; conditions: for Residual rate of formaldehyde in the cup: 25° C. for 2 days, 1 g meglumine powder enclosed
Experimental: Meglumine powder (1 g) was stored in a sealed stoppered glass test tube together with a cup containing an aqueous formaldehyde solution (2 ml) (containing potassium iodide for adjusting moisture) in various concentrations (see FIG. 4). For a comparative control, a cup containing an aqueous formaldehyde solution (2 ml) (containing potassium iodide for adjusting moisture) in various concentrations was put into a sealed stoppered glass test tube without meglumine. The test tubes were stored at 25° C. or 40° C. for 2 days, and the residual amount of formaldehyde in the cup was measured in a similar manner to Experiment 1.

With `C[C@H](Cc1c[nH]c2c(OCC(=O)O)cccc12)NC[C@H](O)c1cccc(Cl)c1` [Compound A, [3-[(2R)-[[(2R)-(3-chlorophenyl)-2-hydroxyethyl]amino]propyl]-1H-indol-7-yleoxy]acetic acid] the “Generated amount of related substances” value ([1]; aldehyde concentration in the cup: Not detected) was “Not detected”, the “Generated amount of related substances” value ([1]; aqueous formaldehyde in the cup 0.0625 μg/ml) was “Not detected” and the “Generated amount of related substances” value ([1]; aqueous formaldehyde in the cup 0.125 μg/ml) was 0.031%. For the same compound, the “Generated amount of related substances” value ([1]; aqueous formaldehyde in the cup 0.25 μg/ml) was 0.063%, the “Generated amount of related substances” value ([1]; aqueous formaldehyde in the cup 0.5 μg/ml) was 0.091% and the “Generated amount of related substances” value ([1]; aqueous formaldehyde in the cup 1.0 μg/ml) was 0.136%.

With `CNC[C@H](O)[C@@H](O)[C@H](O)[C@H](O)CO` [meglumine] the “Residual ratio of formaldehyde in the cup compared to without meglumine (in words)” value ([2]; after storage) was “apparently lowered”, the “Residual rate of formaldehyde in the cup” value ([2]; formaldehyde 0.1 μg/ml) was 85.1% and the “Residual rate of formaldehyde in the cup” value ([2]; formaldehyde 0.5 μg/ml) was 75.5%. The “Residual rate of formaldehyde in the cup” value ([2]; formaldehyde 1 μg/ml) was 70.7%.
